Laboratory results as given in patent US9403872B2 (priority 1999, dated 2016).

System: human fibrosarcoma HT1080 cells
Type: cell-based

Compound | protection of HT1080 cells against WT-PA plus FP59
CNC(=O)[C@@H](NC(=O)[C@H](CC(C)C)[C@H](O)C(=O)NO)C(C)(C)C [BB-2516, Marimastat] | did not protect
CNC(=O)[C@H](Cc1c[nH]c2ccccc12)NC(=O)[C@@H](CC(=O)NO)CC(C)C [GM6001] | did not protect
